In patent publication US6902933B2, “Surface transfection and expression procedure” (Regents of the University of Michigan, priority 2000, dated 2005):

Columns and labels:
Type in all cases: cell-based
[1] = biological target: T1, human D1 dopamine receptor (Homo sapiens, UniProt P21728); assay: STEP D1 dopamine receptor activation assay with pCRE-d2EGFP reporter; details: 48 hours, C1-APB 1 micromolar; for Pixels per spot in STEP D1 activation experiment: HEK-293T cells transfected with CMV.D1 and pCRE-d2EGFP, GFP fluorescence, MCID image analysis
T1 construct: expressed in transfected cells; host or cells: HEK-293T
T1 sequence (P21728 whole entry): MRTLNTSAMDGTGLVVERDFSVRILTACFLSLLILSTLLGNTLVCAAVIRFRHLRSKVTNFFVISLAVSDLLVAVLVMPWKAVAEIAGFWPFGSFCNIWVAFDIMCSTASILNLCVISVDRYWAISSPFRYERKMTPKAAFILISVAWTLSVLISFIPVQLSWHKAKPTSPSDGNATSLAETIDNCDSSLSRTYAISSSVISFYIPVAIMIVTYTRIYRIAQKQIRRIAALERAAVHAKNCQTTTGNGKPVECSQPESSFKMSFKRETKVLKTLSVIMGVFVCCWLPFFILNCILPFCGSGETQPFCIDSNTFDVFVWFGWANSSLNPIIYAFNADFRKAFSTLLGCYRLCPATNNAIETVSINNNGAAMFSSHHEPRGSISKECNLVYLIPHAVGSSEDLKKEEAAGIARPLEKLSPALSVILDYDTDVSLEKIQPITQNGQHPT
Protocol: (§1) The purpose of the experiment was to measure activation of the D1 dopamine receptor by a D1 receptor agonist, Chloro-APB (C1-APB). Activation of the D1 receptor by C1-APB could be measured by virtue of it's coupling to adenylate cyclase and subsequent generation of cyclic AMP, as indicated by the pathway shown in FIG. 3.
Three hundred nanograms of pCMV.D1 (or control vector pCMV.Neo) and 300 ng of pCRE-d2EGFP in 10 microliters were mixed with 10 microliters of transferrin-polylysine complex (1 mg/ml). After 10 minutes, 10 microliters of lipofectamine (1 mg/ml) were added and the mixture incubated for an addition 10 minutes. Spots of approximately 100 nanoliters were placed onto four different polylysine coated microscope slides, and the spots allowed to dry under ambient room conditions. […] The three slides plated with cells were grown in the presence of either C1-APB or the phosphodiesterase inhibitor IBMX or both C1-APB and IBMX.
(§2) After 48 hours, the cells were examined using fluorescence microscopy.

[2] = tested on: cyclic AMP responsive promoter (pCRE-d2EGFP) in HEK-293T cells; assay: STEP D1 activation experiment, control vector pCMV.Neo with pCRE-d2EGFP reporter; details: HEK-293T cells transfected with control vector CMV.Neo and pCRE-d2EGFP; 48 hours; GFP fluorescence, MCID image analysis
Protocol: as §1
Three hundred nanograms of pCMV.D1 (or control vector pCMV.Neo) and 300 ng of pCRE-d2EGFP in 10 microliters were mixed with 10 microliters of transferrin-polylysine complex (1 mg/ml). After 10 minutes, 10 microliters of lipofectamine (1 mg/ml) were added and the mixture incubated for an addition 10 minutes. Spots of approximately 100 nanoliters were placed onto four different polylysine coated microscope slides, and the spots allowed to dry under ambient room conditions. HEK-293T cells were then plated onto three slides, while one slide was grown only in media containing serum. The three slides plated with cells were grown in the presence of either C1-APB or the phosphodiesterase inhibitor IBMX or both C1-APB and IBMX.
as §2

human MC1R = biological target: T2, human MC1R (Homo sapiens, UniProt Q01726); assay: Dose response of melanocortin receptor 1 agonists, pCRE-Luciferase reporter, 96 well STEP; details: increasing concentrations, 6 hours; HEK-239T cells; FIG. 8
T2 construct: expressed in transfected cells; host or cells: HEK-293T
T2 sequence (Q01726 whole entry): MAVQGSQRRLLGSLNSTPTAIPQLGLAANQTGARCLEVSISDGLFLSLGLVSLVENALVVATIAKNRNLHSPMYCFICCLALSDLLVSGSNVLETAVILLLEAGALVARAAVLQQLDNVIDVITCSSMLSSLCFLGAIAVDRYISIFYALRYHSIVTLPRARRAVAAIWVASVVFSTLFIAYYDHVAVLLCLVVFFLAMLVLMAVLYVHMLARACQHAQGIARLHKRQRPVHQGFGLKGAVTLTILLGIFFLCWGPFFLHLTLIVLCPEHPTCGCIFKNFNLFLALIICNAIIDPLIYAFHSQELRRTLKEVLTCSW
Protocol: In the following examples a polylysine coated 96 well plate was used. DNA transfection complexes were generated essentially as described in Example 1. The components a-d from Example 1 were added sequentially but without the 5 min. incubation. The DNA transfection complexes were applied by direct pipetting (complexes can also be applied by automated liquid handling systems) to the bottom of each well in a total volume of 20 μl, and the spots were allowed to dry under ambient conditions until completely dry. HEK-293T cells were prepared as in Example 1.200 μl of media containing 10^4 HEK-293T cells were added to each well. When using the expression vector pZsGreen-N1 (Clontech BD), which encodes a variant of wild-type Zoanthus sp. green fluorescent protein ZsGreen; (excitation maximum=496 nm; emission maximum=506 nm. Ref: Matz, M. V., et al. (1999) Nature Biotech. 17:969-973), the cells were visualized using fluorescent microscopy after 24 and 48 hours following transfections.
DNA complexes were formed with human MC1R cDNA (GenBank Accession No. X67594) and with either pCRE-Luciferase or the control plasmid pTal-Luciferase (lacking the CRE binding sequences). The complexes were applied to the surface of individual wells of a polylysine coated 96 well plate; after complete drying, HEK-239T cells were then added. […]

[3] = tested on: tetracycline responsive element; assay: Transactivation assay using a tetracycline inducible system (pBi-EGFP) after STEP transfection; details: HEK TetOn cells; 10 mg/ml of doxycycline; 48 hours after plating
Protocol: To determine whether STEP transfection could be modified to generate inducible expression of a protein, the tetracycline inducible system developed by Bujard and coworkers was employed (Baron et al. (2000) Proc Natl Acad Sci USA 96:1013-1018). […] Two DNA complexes were prepared for these experiments, one containing the pBi-EGFP plasmid (Clontech) directing the expression of EGFP under the control of a tetracycline responsive element and another complex containing pEGFP-C1 plasmid DNA (Clontech) with EGFP expression under the control of the strong human cytomegalovirus early promoter. Spots for each of these complexes were applied next to each other on each of two different microscope slides and HEK TetOn cells were plated onto each slide in separate 10 cm culture dishes. Twenty-four hours after transfection, one plate was incubated in DMEM and 10% FCS while the other was incubated in the same media containing 10 mg/ml of doxycycline. Fluorescence photomicrographs were prepared 48 hours after plating of the cells. […] In the absence of doxycycline, none of the cells on the pBiEGFP spot were fluorescent while approximately 30% of the cells on the pEGFP-C1 spot were fluorescent.

[4] = tested on: rat PC-12 pheochromocytoma; assay: STEP transfection efficiency with different cell surface ligands in the transfection complex; details: PC-12 cells; ligand in the transfection complex; GFP fluorescence; penton protein 0.64 mg/ml
Protocol: In the following experiments, transfection complexes were formed as described in Example 1, except that in the preparation of some transfection complexes, purified penton protein was used instead of transferring the penton protein was used at a concentration of 0.64 mg/ml. Transfection complexes were thus prepared with either transferrin or penton protein. After immobilizing the complexes as described in Example 1, the cell lines rat PC-12 pheochromocytoma and HEK-293T were transfected as described in Example 1.
The results are shown in FIG. 4 as sets of images; the cell line is indicated at the top of the images, and the ligand used in the transfection complex is indicated to the right of the images. The images under each indicated cell line are either brightfield images (to the left) or fluorescence images (to the right).

In the case of CC(C)Cn1c(=O)n(C)c(=O)c2[nH]cnc21 [UBMX, IBMX], the “Pixels per spot in STEP D1 activation experiment” value (“Pixels per spot” for short) [1] is reported as 165 + 35 pixels per spot and the “Pixels per spot” value [2] is reported as 65 + 32 pixels per spot.
With αMSH the “luciferase activity, dose response curve of the MC1R” value (human MC1R) was “signal is well above background”.
In the case of N-acetyl-[Cys^4,10,D-Phe^7]-αMSH, the “luciferase activity, dose response curve of the MC1R” value (human MC1R) is reported as “signal is well above background”.
C[C@H]1c2cccc(O)c2C(=O)C2=C(O)[C@]3(O)C(=O)C(C(N)=O)=C(O)[C@@H](N(C)C)[C@@H]3[C@@H](O)[C@@H]21 [doxycycline] was tested, and the “cells on the pBi-EGFP spot with detectable GFP expression” value [3] was 20%.
In the case of “transferrin: ligand for a receptor which is endocytosed, used as complexing agent in the transfection complex”, the transfection efficiency [4] is reported as “less than 10%”.
For C=CCN1CCc2c(cc(O)c(O)c2Cl)C(c2ccccc2)C1 (stereo not drawn) [Cl-APB, Chloro-APB], the “Pixels per spot” value [1] was 447 + 38 pixels per spot, the “expression of the green fluorescent protein reporter” value ([1]; cells expressing the D1 receptor, fluorescence microscopy) was “significantly greater expression” and the “Pixels per spot” value [2] was 46 + 38 pixels per spot.
